This is an account of results in patent US6114369A, “Benzimidazole compound” (Nissan Chemical Industries, Ltd., priority 1997, dated 2000).

For experiment [1], the system named is histamine-induced contraction of the isolated guinea-pig ileum. Briefly: Inhibitory effect on histamine-induced contraction of the isolated guinea-pig ileum. The class given is cell-based. Conditions: Cavia porcellus, 5 min, histamine 0.1 μM, 5 min incubation, 30° C. The method, then:
(§1) Inhibitory effect on substance P and histamine-induced contraction of the isolated guinea-pig ileum. Test compounds were dissolved and diluted in 100% dimethylsulfoxide (DMSO). Substance P (SP, Peninsula Laboratories or Peptide Institute) and histamine dihydrochloride (Wako Pure Chemicals) were dissolved and diluted in distilled water. […] Male Hartley guinea-pigs (300-400 g) were killed by a blow to the head. The ileum was removed and the ileal strips (15-20 mm) were suspended under 0.5 g tension in a 20 ml organ bath containing a modified Tyrode solution maintained at 30° C. and aerated with 95% O2 +5% CO2. Responses were recorded isotonically. Tissues were equilibrated for 15 min, and then the constant responses to histamine (1 μM) were obtained. Then substance P (0.01 μM) or histamine (0.1 μM)-induced contraction was obtained after 5 min incubation with or without the test compounds. Contractile responses to substance P or histamine with the test compound were expressed as a percentage of those without the test compound. IC50 was the concentration of the test compound required to prevent 50% of the contractile response elicited by substance P or histamine. Compound Nos. of the tested compounds correspond to the numbers of Preparation Examples.

In experiment [2] the test system is substance P-induced contraction of the isolated guinea-pig ileum. Briefly: Inhibitory effect on substance P-induced contraction of the isolated guinea-pig ileum. The class given is cell-based. The settings on record: Cavia porcellus, 5 min, substance P 0.01 μM, 5 min incubation, 30° C. The method, then: as §1

Structures are written as SMILES. Structures can show the parent of a compound that is named as a salt.

In general, IC50 refers to the concentration that gives 50% inhibition. Regarding `CN(CCCN(C)c1nc2ccccc2n1Cc1ccc(F)cc1)C(=O)NCc1cc(C(F)(F)F)cc(C(F)(F)F)c1` [Compound 1, N-methyl-N-(1-(4-fluorobenzyl)benzimidazol-2-yl)-N'-methyl-N'-(3,5-bis(trifluoromethyl)benzylaminocarbonyl)-1,3-propylenediamine hydrochloride], the IC50 in experiment [1] came to 290 nM; in experiment [2], 590 nM.

Turning to `CN(CCN(C)c1nc2ccccc2n1Cc1ccc(F)cc1)C(=O)NCc1cc(C(F)(F)F)cc(C(F)(F)F)c1` [Compound 2, N-methyl-N-(1-(4-fluorobenzyl)benzimidazol-2-yl)-N'-methyl-N'-(3,5-bis(trifluoromethyl)benzylaminocarbonyl)-1,2-ethylenediamine hydrochloride], the values for the IC50 in experiment [1] and in experiment [2] were 1100 nM and 2800 nM, respectively.

For `CN(CCCN(C)C(=O)NCc1cc(C(F)(F)F)cc(C(F)(F)F)c1)Cc1nc2ccccc2n1Cc1ccc(F)cc1` [Compound 3, N-methyl-N-(1-(4-fluorobenzyl)benzimidazol-2-yl)methyl-N'-methyl-N'-(3,5-bis(trifluoromethyl)benzylaminocarbonyl)-1,3-propylenediamine hydrochloride], the IC50 is 160 nM in experiment [1] and 1400 nM in experiment [2].

As to `CN(CCN(C)C(=O)NCc1cc(C(F)(F)F)cc(C(F)(F)F)c1)Cc1nc2ccccc2n1Cc1ccc(F)cc1` [Compound 4, N-methyl-N-(1-(4-fluorobenzyl)benzimidazol-2-yl)methyl-N'-methyl-N'-(3,5-bis(trifluoromethyl)benzylaminocarbonyl)-1,2-ethylenediamine hydrochloride], the concentration for half-maximal inhibition (IC50) was 100 nM in experiment [1] and 950 nM in experiment [2].

Consider `COc1ccccc1CNC(=O)N(C)CCCN(C)c1nc2ccccc2n1Cc1ccc(F)cc1` [Compound 5], for which the IC50 in experiment [1] was 29 nM; in experiment [2], 3000 nM.

As for `CN(CCCN(C)c1nc2ccccc2n1Cc1ccc(F)cc1)C(=O)NCc1ccccc1Cl` [Compound 6], the 50% inhibitory concentration (IC50) turned out to be 25 nM in experiment [1] and 2700 nM in experiment [2].

In the case of `COc1cc(CNC(=O)N(C)CCCN(C)c2nc3ccccc3n2Cc2ccc(F)cc2)cc(OC)c1OC` [Compound 7], the half-inhibitory concentration (IC50) in experiment [1] worked out at 100 nM; in experiment [2], 4000 nM.

On to `COc1cc(CNC(=O)N(C)CCCN(C)c2nc3ccccc3n2Cc2ccc(F)cc2)cc(OC)c1` [Compound 8], for which the IC50 in experiment [1] came out at 280 nM; in experiment [2] it was 3000 nM.

As to `CN(CCCN(C)c1nc2ccccc2n1Cc1ccc(F)cc1)C(=O)NCc1ccc(F)cc1` [Compound 9], the values for the IC50 in experiment [1] and in experiment [2] were 36 nM and 2700 nM, respectively.

As for `COc1cccc(CNC(=O)N(C)CCCN(C)c2nc3ccccc3n2Cc2ccc(F)cc2)c1` [Compound 10], the results for the IC50 in experiment [1] and in experiment [2] were 41 nM and 2800 nM, respectively.

As for `CN(CCCN(C)c1nc2ccccc2n1Cc1ccc(F)cc1)C(=O)NCc1cc(Cl)cc(Cl)c1` [Compound 11], the figures for the IC50 in experiment [1] and in experiment [2] were 200 nM and 1500 nM, respectively.

Consider `COc1ccc(CNC(=O)N(C)CCCN(C)c2nc3ccccc3n2Cc2ccc(F)cc2)cc1` [Compound 12], for which the IC50 was determined as 44 nM in experiment [1] and 4100 nM in experiment [2].

`Cc1ccc(CNC(=O)N(C)CCCN(C)c2nc3ccccc3n2Cc2ccc(F)cc2)cc1` [Compound 13]: the IC50 in experiment [1] amounted to 28 nM; in experiment [2], 2800 nM.
